Legend:
Experiment in all cases: Test A pre/postemergence
Type in all cases: in vivo
[1] = system: barnyardgrass (Echinochloa crus-galli)
Experimental: (§1) Seeds of barnyardgrass (Echinochloa crus-galli), crabgrass (Digitaria sanguinalis), giant foxtail (Setaria faberi), morningglory (Ipomoea spp.), redroot pigweed (Amaranthus retroflexus) and velvetleaf (Abutilon theophrasti) were planted into a blend of loam soil and sand and treated preemergence with a directed soil spray using test chemicals formulated in a non-phytotoxic solvent mixture which included a surfactant. At the same time these species were also treated with postemergence applications of test chemicals formulated in the same manner.
(§2) Plants ranged in height from 2 to 10 cm and were in the 1- to 2-leaf stage for the postemergence treatment. Treated plants and untreated controls were maintained in a greenhouse for approximately ten days, after which time all treated plants were compared to untreated controls and visually evaluated for injury. Plant response ratings, summarized in Table A, are based on a 0 to 100 scale where 0 is no effect and 100 is complete control. A dash (-) response means no test results.

[2] = system: crabgrass (Digitaria sanguinalis)
Experimental: as §1, §2

[3] = system: giant foxtail (Setaria faberi)
Experimental: as §1, §2

[4] = system: morningglory (Ipomoea spp.)
Experimental: as §1, §2

[5] = system: redroot pigweed (Amaranthus retroflexus)
Experimental: as §1, §2

[6] = system: velvetleaf (Abutilon theophrasti)
Experimental: as §1, §2

[7] = Postemergence, 250 g ai/ha, 0 to 100 scale (0 no effect, 100 complete control)
[8] = Postemergence, 1000 g ai/ha, 0 to 100 scale (0 no effect, 100 complete control)
[9] = Preemergence, 250 g ai/ha, 0 to 100 scale where 0 is no effect and 100 is complete control, approximately ten days
[10] = Preemergence, 1000 g ai/ha, 0 to 100 scale (0 no effect, 100 complete control)
[11] = Postemergence, 125 g ai/ha, 0 to 100 scale (0 no effect, 100 complete control)
[12] = Postemergence, 500 g ai/ha, 0 to 100 scale (0 no effect, 100 complete control)
[13] = Preemergence, 125 g ai/ha, 0 to 100 scale where 0 is no effect and 100 is complete control, approximately ten days
[14] = Preemergence, 500 g ai/ha, 0 to 100 scale where 0 is no effect and 100 is complete control, approximately ten days

COC(=O)c1nc(-c2ccc(F)cc2)nc(N)c1Cl [Compound 43]
Plant response rating, Barnyardgrass [1, 7]: 10
Plant response rating, Barnyardgrass [1, 8]: 20
Plant response rating, Barnyardgrass [1, 9]: 0
Plant response rating, Barnyardgrass [1, 10]: 10
Plant response rating, Crabgrass [2, 7]: 10
Plant response rating, Crabgrass [2, 8]: 30
Plant response rating, Crabgrass [2, 9]: 0
Plant response rating, Crabgrass [2, 10]: 10
Plant response rating, Foxtail, Giant [3, 7]: 10
Plant response rating, Foxtail, Giant [3, 8]: 10
Plant response rating, Foxtail, Giant [3, 9]: 0
Plant response rating, Foxtail, Giant [3, 10]: 10
Plant response rating, Morningglory [4, 7]: 20
Plant response rating, Morningglory [4, 8]: 45
Plant response rating, Morningglory [4, 9]: 0
Plant response rating, Morningglory [4, 10]: 45
Plant response rating, Pigweed [5, 7]: 60
Plant response rating, Pigweed [5, 8]: 85
Plant response rating, Pigweed [5, 9]: 0
Plant response rating, Pigweed [5, 10]: 75
Plant response rating, Velvetleaf [6, 7]: 50
Plant response rating, Velvetleaf [6, 8]: 50
Plant response rating, Velvetleaf [6, 9]: 0
Plant response rating, Velvetleaf [6, 10]: 20

CCOC(=O)c1nc(-c2cccc(C(F)(F)F)c2)nc(N)c1Cl [Compound 107]
Plant response rating, Barnyardgrass [1, 11]: 0
Plant response rating, Barnyardgrass [1, 12]: 0
Plant response rating, Barnyardgrass [1, 13]: 0
Plant response rating, Barnyardgrass [1, 14]: 0
Plant response rating, Crabgrass [2, 11]: 0
Plant response rating, Crabgrass [2, 12]: 5
Plant response rating, Crabgrass [2, 13]: 0
Plant response rating, Crabgrass [2, 14]: 5
Plant response rating, Foxtail, Giant [3, 11]: 0
Plant response rating, Foxtail, Giant [3, 12]: 35
Plant response rating, Foxtail, Giant [3, 13]: 0
Plant response rating, Foxtail, Giant [3, 14]: 0
Plant response rating, Morningglory [4, 11]: 0
Plant response rating, Morningglory [4, 12]: 0
Plant response rating, Morningglory [4, 13]: 0
Plant response rating, Morningglory [4, 14]: 0
Plant response rating, Pigweed [5, 11]: 10
Plant response rating, Pigweed [5, 12]: 10
Plant response rating, Pigweed [5, 13]: 0
Plant response rating, Pigweed [5, 14]: 0
Plant response rating, Velvetleaf [6, 11]: 35
Plant response rating, Velvetleaf [6, 12]: 65
Plant response rating, Velvetleaf [6, 13]: 0
Plant response rating, Velvetleaf [6, 14]: 10

CCOC(=O)c1nc(-c2cc(Br)cc(OC)c2)nc(N)c1Cl [Compound 101]
Plant response rating, Barnyardgrass [1, 11]: 0
Plant response rating, Barnyardgrass [1, 12]: 0
Plant response rating, Barnyardgrass [1, 13]: 0
Plant response rating, Barnyardgrass [1, 14]: 0
Plant response rating, Crabgrass [2, 11]: 0
Plant response rating, Crabgrass [2, 12]: 0
Plant response rating, Crabgrass [2, 13]: 0
Plant response rating, Crabgrass [2, 14]: 0
Plant response rating, Foxtail, Giant [3, 11]: 0
Plant response rating, Foxtail, Giant [3, 12]: 0
Plant response rating, Foxtail, Giant [3, 13]: 0
Plant response rating, Foxtail, Giant [3, 14]: 0
Plant response rating, Morningglory [4, 11]: 0
Plant response rating, Morningglory [4, 12]: 0
Plant response rating, Morningglory [4, 13]: 0
Plant response rating, Morningglory [4, 14]: 0
Plant response rating, Pigweed [5, 11]: 0
Plant response rating, Pigweed [5, 12]: 5
Plant response rating, Pigweed [5, 13]: 0
Plant response rating, Pigweed [5, 14]: 0
Plant response rating, Velvetleaf [6, 11]: 0
Plant response rating, Velvetleaf [6, 12]: 15
Plant response rating, Velvetleaf [6, 13]: 0
Plant response rating, Velvetleaf [6, 14]: 0

CS(=O)(=O)NC(=O)c1nc(-c2ccc(Cl)cc2)nc(N)c1Cl [Compound 131]
Plant response rating, Barnyardgrass [1, 11]: 10
Plant response rating, Barnyardgrass [1, 12]: 20
Plant response rating, Barnyardgrass [1, 13]: 0
Plant response rating, Barnyardgrass [1, 14]: 0
Plant response rating, Crabgrass [2, 11]: 10
Plant response rating, Crabgrass [2, 12]: 30
Plant response rating, Crabgrass [2, 13]: 0
Plant response rating, Crabgrass [2, 14]: 0
Plant response rating, Foxtail, Giant [3, 11]: 15
Plant response rating, Foxtail, Giant [3, 12]: 30
Plant response rating, Foxtail, Giant [3, 13]: 0
Plant response rating, Foxtail, Giant [3, 14]: 0
Plant response rating, Morningglory [4, 11]: 0
Plant response rating, Morningglory [4, 12]: 20
Plant response rating, Morningglory [4, 13]: 0
Plant response rating, Morningglory [4, 14]: 0
Plant response rating, Pigweed [5, 11]: 50
Plant response rating, Pigweed [5, 12]: 70
Plant response rating, Pigweed [5, 13]: 0
Plant response rating, Pigweed [5, 14]: 0
Plant response rating, Velvetleaf [6, 11]: 35
Plant response rating, Velvetleaf [6, 12]: 60
Plant response rating, Velvetleaf [6, 13]: 0
Plant response rating, Velvetleaf [6, 14]: 0

— patent US8802597B2, “Herbicidal pyrimidines” (E I du Pont de Nemours and Company, priority 2003, dated 2014)
